pIC50: −log10 of the molar value. Activity calls are given as the source filed them. No cut-off for these calls is given here.
Legend:
[1] = biological target: T1, Nuclear receptor ROR-gamma (Homo sapiens, UniProt P51449); assay: Inverse agonist activity at APC-labeled RORgammat LBD (unknown origin) assessed as inhibition of europium-labeled SRC-1 recruitment incubated for 1 hrs by dual FRET assay
T1 sequence (P51449 whole entry): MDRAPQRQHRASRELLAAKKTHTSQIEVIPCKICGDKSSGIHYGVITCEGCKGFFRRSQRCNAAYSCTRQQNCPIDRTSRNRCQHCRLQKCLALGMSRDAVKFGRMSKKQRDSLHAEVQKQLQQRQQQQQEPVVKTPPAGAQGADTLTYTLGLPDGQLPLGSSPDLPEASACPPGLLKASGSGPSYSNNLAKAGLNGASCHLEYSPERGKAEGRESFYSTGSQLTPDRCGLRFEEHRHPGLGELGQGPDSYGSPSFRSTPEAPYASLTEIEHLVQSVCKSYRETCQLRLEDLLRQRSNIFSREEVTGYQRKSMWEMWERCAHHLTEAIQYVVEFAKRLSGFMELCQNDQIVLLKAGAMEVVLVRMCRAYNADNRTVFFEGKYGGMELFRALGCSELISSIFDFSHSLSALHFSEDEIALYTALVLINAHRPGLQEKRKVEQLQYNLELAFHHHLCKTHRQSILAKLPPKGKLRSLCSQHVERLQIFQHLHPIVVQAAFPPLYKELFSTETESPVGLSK

[2] = Toxicity in BALB/c mouse assessed as change in body weight at 4 % administered topically as ointment once a day for 11 days; conditions: in vivo, topical_or_ocular, 264 h, time 11 day
Mus musculus [3] = assay: Antiinflammatory activity against imiquimod-induced psoriasis BALB/c mouse model at 4 % administered topically as ointment once a day for 11 days; assay type: functional, organism-based; conditions: time 11.0 day
[4] = Inhibition of mouse Th17 cells differentiation from CD4+ T cells flow cytometric analysis
[5] = Inhibition of mouse Th17 cells differentiation from CD4+ T cells assessed as maximum inhibition flow cytometric analysis relative to control; assay type: functional
[6] = Metabolic stability in CD-1 mouse liver microsomes assessed as half life preincubated for 5 mins followed by NADPH addition and measured upto 60 mins by LC-MS/MS analysis; assay type: ADME, Microsome; conditions: time < 65 min
[7] = Metabolic stability in CD-1 mouse microsomes assessed as intrinsic clearance preincubated for 5 mins followed by NADPH addition and measured upto 60 mins by LC-MS/MS analysis; assay type: ADME, Microsome; conditions: time < 65 min, read-out: CLH
[8] = Metabolic stability in CD-1 mouse liver assessed as intrinsic clearance preincubated for 5 mins followed by NADPH addition and measured upto 60 mins by LC-MS/MS analysis; assay type: ADME, tissue-based; conditions: time < 65 min, read-out: CLH
Mus musculus [9] = assay: Antiinflammatory activity against imiquimod-induced psoriasis BALB/c mouse model assessed as body weight at 100 mg/kg, ip qd for 7 days; assay type: functional; conditions: time 7 day
Mus musculus [10] = assay: Antiinflammatory activity against imiquimod-induced psoriasis BALB/c mouse model assessed as reduction in body weight at 100 mg/kg, ip qd for 7 days; assay type: functional; parameters: scale not given: the % may be the effect or the level left; conditions: time 7 day
Mus musculus [11] = assay: Antiinflammatory activity against imiquimod-induced psoriasis BALB/c mouse model assessed as effect on spleen enlargement at 100 mg/kg, ip qd for 7 days; assay type: functional, organism-based; conditions: time 7.0 day
Mus musculus [12] = assay: Antiinflammatory activity against imiquimod-induced psoriasis BALB/c mouse model assessed as change in ear thickness at 100 mg/kg, ip qd for 7 days; assay type: functional, organism-based; conditions: time 7.0 day
Mus musculus [13] = assay: Antiinflammatory activity against imiquimod-induced psoriasis BALB/c mouse model assessed as change in ear erythema score at 100 mg/kg, ip qd for 7 days; assay type: functional, organism-based; conditions: time 7.0 day
[14] = Drug concentration in pig ear assessed as retention amount at 0.0094 g administered intradermally as 4 % ointment measured at 12 hrs; assay type: ADME, tissue-based, Sus scrofa; conditions: in vivo, other
[15] = Drug concentration in BALB/c mouse plasma at 4 % administered topically as ointment measured at 10 mins; assay type: ADME, cell-free; conditions: topical or ocular
[16] = Drug concentration in BALB/c mouse plasma at 4 % administered topically as ointment measured at 2 hrs; assay type: ADME, cell-free; conditions: topical_or_ocular
[17] = Drug concentration in pig ear assessed as retention amount at 0.0090 g administered intradermally as 4 % ointment measured at 12 hrs; assay type: ADME, tissue-based, Sus scrofa; conditions: in vivo, other
[18] = Drug concentration in pig ear assessed as retention amount at 0.0085 g administered intradermally as 4 % ointment measured at 12 hrs; assay type: ADME, tissue-based, Sus scrofa; conditions: in vivo, other
[19] = Drug concentration in pig ear assessed as retention rate at 0.0094 g administered intradermally as 4 % ointment measured at 12 hrs; assay type: ADME, tissue-based, Sus scrofa; conditions: in vivo, other
[20] = Drug concentration in pig ear assessed as retention rate at 0.0090 g administered intradermally as 4 % ointment measured at 12 hrs; assay type: ADME, tissue-based, Sus scrofa; conditions: in vivo, other
[21] = Drug concentration in pig ear assessed as retention rate at 0.0086 g administered intradermally as 4 % ointment measured at 12 hrs; assay type: ADME, tissue-based, Sus scrofa; conditions: in vivo, other
[22] = Drug concentration in pig ear assessed as retention rate at 0.0085 g administered intradermally as 4 % ointment measured at 12 hrs; assay type: ADME, tissue-based, Sus scrofa; conditions: in vivo, other
[23] = Toxicity in BALB/c mouse assessed as change in body weight at 0.25 to 4 % administered topically as ointment once a day for 11 days; conditions: in vivo, topical_or_ocular, 264 h, dose 0.25-4 %, time 11 day
Mus musculus [24] = assay: Antiinflammatory activity against imiquimod-induced psoriasis BALB/c mouse model at 0.25 to 4 % administered topically as ointment once a day for 11 days; assay type: functional, organism-based; conditions: dose 0.25-4 %, time 11.0 day
Mus musculus [25] = assay: Antiinflammatory activity against imiquimod-induced psoriasis BALB/c mouse model at 1 to 4 % administered topically as ointment once a day for 11 days; assay type: functional, organism-based; conditions: time 11.0 day
Mus musculus [26] = assay: Anti-inflammatory activity in imiquimod-induced BALB/c mouse psoriasis model assessed as reduction in dermal inflammatory cell infiltration at 4 % administered topically as ointment once a day for 11 days by H and E staining based analysis; assay type: functional, organism-based; conditions: time 11.0 day
Mus musculus [27] = assay: Anti-inflammatory activity in imiquimod-induced BALB/c mouse psoriasis model assessed as appearance of smooth skin at 4 % administered topically as ointment once a day for 11 days by H and E staining based analysis; assay type: functional, organism-based; conditions: time 11.0 day
Mus musculus [28] = assay: Anti-inflammatory activity in imiquimod-induced BALB/c mouse psoriasis model assessed as improvement in spinous cell layer at 4 % administered topically as ointment once a day for 11 days by H and E staining based analysis; assay type: functional, organism-based; conditions: time 11.0 day
Mus musculus [29] = assay: Anti-inflammatory activity in imiquimod-induced BALB/c mouse psoriasis model assessed as appearance of clear sebaceous gland at 4 % administered topically as ointment once a day for 11 days by H and E staining based analysis; assay type: functional, organism-based; conditions: time 11.0 day
Mus musculus [30] = assay: Anti-inflammatory activity in imiquimod-induced BALB/c mouse psoriasis model assessed as appearance of clear hair follicle at 4 % administered topically as ointment once a day for 11 days by H and E staining based analysis; assay type: functional, organism-based; conditions: time 11.0 day
[31] = Acute toxicity in BALB/c mouse assessed as signs of mortality at 10 to 20 % administered topically as ointment once a day for 12 days; conditions: in vivo, topical_or_ocular, 288 h, dose 10-20 %, time 12 day
[32] = Acute toxicity in BALB/c mouse assessed as signs of morbidity at 10 to 20 % administered topically as ointment once a day for 12 days; conditions: in vivo, topical_or_ocular, 288 h, dose 10-20 %, time 12 day
[33] = Acute toxicity in BALB/c mouse assessed as body weight gain at 10 to 20 % administered topically as ointment once a day for 12 days; conditions: in vivo, topical_or_ocular, 288 h, dose 10-20 %, time 12 day
[34] = Acute toxicity in BALB/c mouse at 20 % administered topically as ointment once a day for 12 days; conditions: in vivo, topical_or_ocular, 288 h, time 12 day
[35] = biological target: Voltage-gated inwardly rectifying potassium channel KCNH2 (Homo sapiens, UniProt Q12809); assay: Inhibition of hERG at -80 mV holding potential measured for 2.5 mins; assay type: toxicity
Mus musculus [36] = assay: Antiinflammatory activity against imiquimod-induced psoriasis BALB/c mouse model assessed as body weight at 5 mg/kg, ip qd for 7 days; assay type: functional; conditions: time 7 day
Mus musculus [37] = assay: Antiinflammatory activity against imiquimod-induced psoriasis BALB/c mouse model assessed as reduction in body weight at 5 mg/kg, ip qd for 7 days; assay type: functional; parameters: scale not given: the % may be the effect or the level left; conditions: time 7 day
Mus musculus [38] = assay: Antiinflammatory activity against imiquimod-induced psoriasis BALB/c mouse model assessed as reduction in spleen to body weight ratio at 5 mg/kg, ip qd for 7 days; assay type: functional, organism-based; conditions: time 7.0 day

Voltage-gated inwardly rectifying potassium channel KCNH2, sequence (Q12809 whole entry): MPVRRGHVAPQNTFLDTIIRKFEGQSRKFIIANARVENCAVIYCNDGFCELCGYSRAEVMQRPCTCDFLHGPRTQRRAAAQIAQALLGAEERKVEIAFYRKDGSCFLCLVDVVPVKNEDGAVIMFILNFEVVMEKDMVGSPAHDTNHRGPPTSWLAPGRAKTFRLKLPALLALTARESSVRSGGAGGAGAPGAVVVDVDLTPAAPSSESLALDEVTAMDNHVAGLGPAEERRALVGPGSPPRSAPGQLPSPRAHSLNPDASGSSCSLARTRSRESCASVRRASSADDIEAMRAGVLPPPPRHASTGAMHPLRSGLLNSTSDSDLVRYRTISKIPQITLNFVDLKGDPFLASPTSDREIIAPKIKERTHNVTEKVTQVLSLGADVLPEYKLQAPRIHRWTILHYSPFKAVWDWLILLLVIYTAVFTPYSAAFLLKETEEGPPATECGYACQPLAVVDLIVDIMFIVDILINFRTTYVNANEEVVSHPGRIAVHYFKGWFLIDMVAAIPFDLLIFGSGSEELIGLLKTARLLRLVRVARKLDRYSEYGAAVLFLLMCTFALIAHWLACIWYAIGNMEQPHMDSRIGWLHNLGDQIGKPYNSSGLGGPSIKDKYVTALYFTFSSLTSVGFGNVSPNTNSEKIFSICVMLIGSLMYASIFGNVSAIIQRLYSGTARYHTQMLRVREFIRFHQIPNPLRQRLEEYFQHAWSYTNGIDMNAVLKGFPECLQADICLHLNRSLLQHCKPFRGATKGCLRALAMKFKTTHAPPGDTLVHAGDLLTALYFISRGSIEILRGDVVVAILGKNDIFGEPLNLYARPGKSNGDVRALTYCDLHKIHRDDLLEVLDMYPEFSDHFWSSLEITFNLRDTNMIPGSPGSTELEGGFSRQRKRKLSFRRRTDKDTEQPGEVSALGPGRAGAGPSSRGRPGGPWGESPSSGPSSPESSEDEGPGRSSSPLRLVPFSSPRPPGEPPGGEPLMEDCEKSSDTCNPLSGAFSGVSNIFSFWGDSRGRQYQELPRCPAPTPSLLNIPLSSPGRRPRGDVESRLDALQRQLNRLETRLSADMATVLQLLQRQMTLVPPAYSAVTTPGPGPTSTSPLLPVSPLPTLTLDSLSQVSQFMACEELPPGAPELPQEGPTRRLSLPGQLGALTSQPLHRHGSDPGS

With `CN(Cc1ccccc1)S(=O)(=O)N1CCCc2cc(N3CCN(C(=O)C4CCOC4)CC3)ccc21` (stereo not drawn) the pIC50 [1] was 4.73.

For `CC(=O)N1CCN(c2ccc3c(c2)CCCN3S(=O)(=O)N(C)Cc2ccc(C(O)(C(F)(F)F)C(F)(F)F)cc2)CC1`, the pIC50 [1] was 5.85.

For `CCc1ccc(N(CC(C)C)S(=O)(=O)c2ccc(OCC3CCOCC3)c(CO)c2)cc1` [GSK2981278], the Activity [2] was “Non-toxic” and the Activity (Mus musculus [3]) was “Active”.

With `CCc1ccc(S(=O)(=O)N2CCCc3cc(N4CCN(C(C)=O)CC4)ccc32)cc1` the pIC50 [1] was 5.04.

Compound `CC(=O)N1CCN(c2ccc3c(c2)C(C)(C)CCN3S(=O)(=O)N(C)Cc2ccccc2)CC1` has a pIC50 [1] of 5.02.

With `CN(Cc1ccccc1)S(=O)(=O)N1CCCc2cc(N3CCN(C(=O)C4CCC4)CC3)ccc21` the pIC50 [1] was 4.89.

`CC(=O)N1CCN(c2ccc3c(c2)CCCN3S(=O)(=O)N(C)C(C)c2ccc(F)cc2)CC1` (stereo not drawn) showed a pIC50 [1] of 4.57.

Compound `CN(Cc1ccccc1)S(=O)(=O)N1CCCc2cc(N3CCN(C(=O)C4CCCC4)CC3)ccc21` has a pIC50 [1] of 5.48.

`CC(=O)N1CCN(c2ccc3c(c2)N(S(=O)(=O)N(C)Cc2ccccc2)CCC3)CC1` gave a pIC50 [1] of 7.01.

In the case of `CN(Cc1ccccc1)S(=O)(=O)N1CCCc2cc(N3CC4(CCOCC4)C3)ccc21`, the pIC50 [1] was 4.72.

Compound `CC(=O)N1CCN(c2ccc3c(c2)CCCN3S(=O)(=O)N(C)Cc2ccc(C(F)(F)F)o2)CC1` has a pIC50 [1] of 4.57.

With `CN(Cc1ccccc1)S(=O)(=O)N1CCCc2cc(N3CCN(C(=O)C4CCOCC4)CC3)ccc21` the pIC50 [1] was 5.17.

For `CN(Cc1ccc(C(C)(C)C)cc1)S(=O)(=O)N1CCCc2cc(Nc3ccc4c(c3)CCCC4=O)ccc21`, the pIC50 [1] was 7.03, the pIC50 [4] was 5.80 and the Imax [5] was 95%. It also gave a half-life [6] of 18.2 min, a microsomal CLint [7] of 76 µL/min/mg and a CLint scaled [8] of 301 mL/min/kg. The Activity (Mus musculus [9]) was 2.41 g, the Activity (Mus musculus [10]) was 13% and the Activity (Mus musculus [11]) was “Active”. The Activity (Mus musculus [12]) was “Active”, the Activity (Mus musculus [13]) was “Active” and the Drug uptake [14] was 0.012 mg. The concentration at 10 min [15] was 75 ng/mL, the Drug uptake [16] was “Not_active” and the Drug uptake [17] was 0.012 mg. It also gave a Drug uptake [18] of 0.019 mg, a Drug uptake [19] of 5.22% and a Drug uptake [20] of 3.27%. The Drug uptake [21] was 4.82%, the Drug uptake [22] was 5.79% and the Activity [23] was “Non-toxic”. The Activity (Mus musculus [24]) was “Active”, the Activity (Mus musculus [3]) was “Active” and the Activity (Mus musculus [25]) was “Active”. The Activity (Mus musculus [26]) was “Active”, the Activity (Mus musculus [27]) was “Active” and the Activity (Mus musculus [28]) was “Active”. For the same compound, the Activity (Mus musculus [29]) was “Active”, the Activity (Mus musculus [30]) was “Active” and the Activity [31] was “Non-toxic”. For the same compound, the Activity [32] was “Non-toxic”, the Activity [33] was “Non-toxic” and the Activity [34] was “Non-toxic”. For the same compound, the pIC50 [35] was under 4.40.

`CC(=O)c1ccc(Nc2ccc3c(c2)CCCN3S(=O)(=O)N(C)Cc2ccccc2)cc1` gave a pIC50 [1] of 5.12.

Compound `CN(Cc1ccccc1)S(=O)(=O)N1CCCc2cc(N3CCN(C(=O)C(F)(F)F)CC3)ccc21` has a pIC50 [1] of 5.31.

Work on `CC(=O)N1CCN(c2cc(F)c3c(c2)CCCN3S(=O)(=O)N(C)Cc2ccccc2)CC1` yielded a pIC50 [1] of 7.68.

With `CC(=O)N1CCN(c2ccc3c(c2)CCCN3S(=O)(=O)N(C)Cc2ccc(SC(F)(F)F)cc2)CC1` the pIC50 [1] was 5.18.

In the case of `C[C@@H]1C[C@H]2[C@@H]3CCC4=CC(=O)C=C[C@]4(C)[C@@]3(F)[C@@H](O)C[C@]2(C)[C@@]1(O)C(=O)CO` [DEXAMETHASONE], the Activity (Mus musculus [36]) was 3.43 g, the Activity (Mus musculus [37]) was 18% and the Activity (Mus musculus [38]) was “Active”.

With `CC(=O)N1CCN(c2ccc(CN(C3CCC3)S(=O)(=O)Cc3ccccc3)cc2)CC1` the Imax [5] was 90.1%.

In the case of `CN(Cc1ccccc1)S(=O)(=O)N1CCCc2cc(N3CC4(COC4)C3)ccc21`, the pIC50 [1] was 6.19.

Compound `CCc1ccc(N(C)S(=O)(=O)N2CCCc3cc(N4CCN(C(C)=O)CC4)ccc32)cc1` has a pIC50 [1] of 4.88.

Compound `CN(Cc1ccc(C(C)(C)C)cc1)S(=O)(=O)N1CCCc2cc(N3CCC(C(=O)O)CC3)ccc21` has a pIC50 [1] of 6.54.

Source: ChEMBL document CHEMBL6083292, “Discovery of Novel N-Sulfonamide-tetrahydroquinolines as Potent Retinoic Acid Receptor-Related Orphan Receptor γt (RORγt) Inverse Agonists for the Treatment of Psoriasis” (J Med Chem, 2024)
